In assay [1] the test system is human activated platelets. As to the kind of experiment: Binding of investigated compounds to human activated platelets (ICP-MS of Gd in pellet and supernatant). Format: cell-based. The conditions noted are these: incubation concentration 1 μM molecule. Here is the method:
For each experiment fresh blood was taken from a volunteer using 10 mL citrate-tubes (Sarstedt S-Monovette 02.1067.001, 10 mL, Citrate 3.13%). The 10 mL citrate-tubes were carefully inverted 10 times to mix blood and anticoagulant. The tubes were stored in an incubator at a temperature of 37° C. until centrifugation (Heraeus miniTherm CTT with integrated rotation- and turning device, turning speed: 19 rotations per minute, Heraeus Instruments GmbH, Hanau/Germany).
For plasma preparation tube centrifugation was carried out for 15 minutes at 1811 g at room temperature (Eppendorf, Centrifuge 5810R). Blood was centrifuged 15 minutes at 201 g at room temperature to produce platelet-rich plasma. The tubes were stored for 30 min at room temperature to get a better separation. The separated platelet-rich plasma was finally centrifuged for further 3 min at 453 g to remove the remaining erythrocytes. The platelet-rich plasma was activated using a final concentration of 5 μM Adenosindiphosphate (ADP, Sigma). The activated platelet-rich plasma was incubated 20 minutes with different concentrations of gadolinium-labeled compound and subsequently was centrifuged 3 minutes at 1360 g. 20 μL of incubation solution was taken to determine the concentration (n=3). […] The gadolinium concentration of supernatant and pellet was determined using an inductively coupled plasma mass spectrometry (ICP-MS Agilent 7500a).
The results for incubation concentration of 1 μM gadolinium-labeled compound are summarized in table 3 (in comparison to Gadovist® standard dose: 100 μmol Gd/kg body weight).

In assay [2] the test system is in vitro platelet-rich thrombi. Nature of the assay: Magnetic resonance imaging of in vitro platelet-rich thrombi. The class given is cell-based, human. The conditions noted are these: 10 μmol substance/L, 20 min incubation, washed three times with plasma, 1.5 T, versus control thrombus without contrast agent. Here is the method: Magnetic resonance imaging of in vitro platelet-rich thrombi and incubation solution (example 8) using a 3D turbo spin echo sequence (1.5 T, Siemens Avanto, small extremity coil, TR 1050 ms, TE 9.1 ms, 0.5×0.5×0.6 mm^3). In FIG. 2a an in vitro control thrombus without the addition of a contrast agent is shown. The signal intensity of the control thrombus is slightly higher than the surrounding medium but clearly lower than the signal of the in vitro thrombus which was incubated with example 8 as depicted in FIG. 2b. In FIG. 2c the incubation solution with a final concentration of 10 μmol substance/L of example 8 in human plasma is represented. The signal intensity is higher than the surrounding plasma solutions in the in vitro platelet-rich thrombi 2a and 2b.
The in vitro thrombus in FIG. 2b is incubated with the solution which is depicted in FIG. 2c. After 20 min incubation period the thrombi was washed three times with plasma solution.
The MRI imaging experiments were done with platelet-rich plasma. The preparation of platelet-rich plasma using fresh blood is described in L K Jennings et. al. Blood 1986 1, 173-179 but modified with regard to centrifugation procedure. Briefly, fresh blood was taken from a volunteer using 10 mL citrate-tubes (Sarstedt S-Monovette 02.1067.001, 10 mL, Citrate 3.13%). The 10 mL citrate-tubes were carefully inverted 10 times to mix blood and anticoagulant. […]

In the case of `CC(C(=O)NCC(=O)NC[C@H](NC(=O)CNC(=O)C(C)N1CCN(CC(=O)O)CCN(CC(=O)O)CCN(CC(=O)O)CC1)C(=O)NC[C@H](NC(=O)[C@H](CNC(=O)CNC(=O)C(C)N1CCN(CC(=O)O)CCN(CC(=O)O)CCN(CC(=O)O)CC1)NC(=O)CNC(=O)C(C)N1CCN(CC(=O)O)CCN(CC(=O)O)CCN(CC(=O)O)CC1)C(=O)NCCCCc1cccc(C#Cc2cncc([C@H](CC(=O)O)NC(=O)[C@@H]3CCCN(C(=O)CCC4CCNCC4)C3)c2)c1)N1CCN(CC(=O)O)CCN(CC(=O)O)CCN(CC(=O)O)CC1` (stereo partly drawn) [Example 8], the “Concentration within platelet pellet” value in assay [1] (ADP-activated platelet-rich plasma, 20 minutes, pellet washed) came to 26.7 ± 1.5 μM Gd. For the same compound, the pellet/supernatant in assay [1] (ratio of Gd concentration) was 254 ± 26 (n = 3). Moreover, the “signal intensity of incubated in vitro thrombus (T1-weighted 3D TSE MRI)” value in assay [2] is given as “clearly higher signal than the control thrombi”.

The record behind these values is patent US20160008490A1, “METAL CHELATE COMPOUNDS FOR BINDING TO THE PLATELET SPECIFIC GLYCOPROTEIN IIB/IIIA” (BAYER PHARMA AKTIENGESELLSCHAFT, priority 2013, published 2016).
